# Measurements published in US20100249030A1, “ANTI-MITOTIC AGENT AND AURORA KINASE INHIBITOR COMBINATION AS ANTI-CANCER TREATMENT” (Schering Corporation, priority 2007, published 2010).
# Like-named read-outs stand apart in the source and are kept apart here.
# Columns and labels:
# phos-MPM2 marker = test: Exit from mitosis measured by phos-MPM2 marker after anti-mitotic induced arrest; format: cell-based; settings: taxane and KSP induced arrest
# Description: (§1) Single agent Aurora kinase inhibitors require a drug exposure time of 24 hours to induce endoreduplication in asynchronous cells.
# cancer cell lines = settings: cited from earlier work; for cell growth inhibition in combination with a taxane: VX-680 with taxotere, VE-645 with taxol, AZD1152 with taxol, AACR 2007 abstracts; for synergy with Taxotere: Hoover and Harding 2007
# [1] = system: HCT-116 colon cancer cells; test: FACS (flow cytometric) analysis of endoreduplication (>4N DNA content) in HCT-116 colon cancer cells; format: cell-based; settings: for Aurora kinase inhibitor exposure at which endoreduplication was still observed (as little as): after 16 hours 5 nM taxotere pretreatment; for exposure to Aurora kinase inhibitor required to induce endoreduplication (>4N DNA content) or cell death: asynchronous cells, 250 nM VX-680, 1000 nM COMPOUND X, 25 nM COMPOUND Z; for exposure to Aurora kinase inhibitor required to induce endoreduplication (>4N DNA content) or cell death / endoreduplication (>4N DNA content): single agent; for time required for Aurora inhibitor to induce endoreduplication, change after pre-treatment: following 16 hour pre-treatment with nocodazole, 250 nM VX-680, 1000 nM COMPOUND X or COMPOUND Z; for cell cycle distribution after release from anti-mitotic pretreatment: 16 hours pretreatment (5 nM taxotere / 0.4 μg/ml nocodazole), then released into DMSO; for cell cycle distribution after anti-mitotic pretreatment (labeled 0 hours): 16 hours pretreatment, 5 nM taxotere / 0.4 μg/ml nocodazole; for effect of anti-mitotic pre-treatment on the exposure time required for an Aurora kinase inhibitor to induce endoreduplication: 16 hour pre-treatment with the anti-mitotic agent (5 nM taxol, 10-50 nM KSP inhibitors)
# Description: Asynchronous cells require 24 hour exposure to Aurora kinase inhibitors (such as 250 nM VX-680 or 1000 nM COMPOUND X. (Compound X is disclosed in WO 2008/057512, filed Nov. 6, 2007, Example 4-3 and Claim 70, Example 4-3 and Claim 70 and is shown below and it is represented in Formula H and Table 2, column 2, row 17 of the present application) or 25 nM COMPOUND Z (Compound Z is disclosed in PCT US2008/007295, filed Jun. 11, 2008, Example 76-2 and Claim 25, row 7, column 4 and it is represented in Table 13, compound 76-2 of the present application)) to induce endoreduplication (>4N DNA content) or cell death. For example, HCT-116 colon cancer cells were treated with 1000 nM COMPOUND X or 25 nM COMPOUND Z for the indicated times at which time the drug was washed off and replaced with new media see FIG. 1 and FIG. 8 respectively. Cells were analyzed by FACS after a total of 72 hours.
# For example, HCT-116 colon cancer cells were treated with 1000 nM COMPOUND X or 25 nM COMPOUND Z for the indicated times at which time the drug was washed off and replaced with new media see FIG. 2 and FIG. 9 respectively. Cells were analyzed by FACS after a total of 24 hours.
# For example, HCT-116 colon cancer cells were treated for 16 hours with DMSO (FIG. 3) or 5 nM taxotere and then exposed to DMSO or 1000 nM COMPOUND X or 25 nM COMPOUND Z for 4, 8, and 24 hours. After 4 or 8 hours, COMPOUND X or COMPOUND Z was washed off and new media was added to the cells. Cells were harvested after 24 hours and analyzed by FACS (see FIG. 4 and FIG. 11 respectively). Following DMSO pretreatment, DMSO had no effect on cell cycle distribution. […] Endoreduplication was observed even when COMPOUND X or COMPOUND Z exposure was as little as 4 hours.
# However, following a 16 hour pre-treatment with nocodazole for incrusting, the time required for an Aurora inhibitor (such as 250 nM VX-680 or 1000 nM COMPOUND X or COMPOUND Z) to induce endoreduplication was […]. For example, HCT-116 colon cancer cells were treated for 16 hours with 0.4 μg/ml nocodazole see FIG. 5, and then exposed to DMSO or 1000 nM COMPOUND X or COMPOUND Z for 4, 8 or 24 hours. After 4 or 8 hours, COMPOUND X or COMPOUND Z was washed off and new media was added to the cells. Cells were harvested after 24 hours and analyzed by FACS.
# For example, HCT-116 colon cancer cells that were not pretreated, were treated with 5 nM taxotere plus DMSO or 1000 nM COMPOUND X or COMPOUND Z concurrently for 4, 8, or 24 hours. At the indicated time the media was removed and replaced with new media and taxotere was added back into these cells. Cells were harvested after 24 hours and analyzed by FACS see FIG. 6 or FIG. 12 respectively.
# [2] = system: phosphorylation of Histone H3 (at serine-10); test: Inhibition of phosphorylation of Histone H3 (serine-10) stimulated by anti-mitotic agents; format: cell-based; settings: stimulated by taxanes, KSP inhibitor, and nocodazole
# Description: as §1
# [3] = system: HCT-116 colon cancer cells; test: FACS (flow cytometric) analysis of endoreduplication (>4N DNA content) in HCT-116 colon cancer cells; format: cell-based; settings: after 16 hours 10 nM Ispinesib pretreatment; 1000 nM Compound X / 25 nM Compound Z
# [4] = system: cells arrested with taxol, monastrol or nocodazole; settings: Morrow et al. 2005, Ditchfield et al. 2003, cited from earlier work
# [5] = 16 hours 5 nM taxotere pretreatment, then 1000 nM Compound X or 25 nM Compound Z for 4, 8 and 24 hours, FACS at 24 hours
# [6] = 16 hours 10 nM Ispinesib (KSP inhibitor) pretreatment, then 1000 nM Compound X or 25 nM Compound Z for 4, 8 and 24 hours, FACS at 24 hours
# [7] = 16 hours DMSO pretreatment, then 1000 nM COMPOUND X or 25 nM COMPOUND Z for 4, 8 and 24 hours, FACS at 24 hours
# [8] = 16 hours nocodazole (0.4 μg/ml) pretreatment, then 4- or 8-hour exposure to Aurora kinase inhibitor, FACS at 24 hours
# [9] = 16 hours nocodazole (0.4 μg/ml) pretreatment, then 24 hour exposure to Aurora kinase inhibitor, FACS at 24 hours
# [10] = Aurora kinase inhibitor given at the same time as 5 nM taxotere, 4 hour exposure, FACS at 24 hours
# [11] = Aurora kinase inhibitor given at the same time as 5 nM taxotere, no pretreatment
# [12] = 1000 nM Compound X / 25 nM Compound Z
# [13] = 24 hour exposure, FACS after a total of 24 hours, 250 nM VX-680 / 1000 nM Compound X / 25 nM Compound Z
# [14] = drug exposure for 24, 48, or 72 hours, FACS after a total of 72 hours, 1000 nM Compound X / 25 nM Compound Z
# [15] = exposure less than 24 hours then drug washed off, FACS after a total of 72 hours, 1000 nM Compound X / 25 nM Compound Z
# [16] = exposure less than 24 hours then washed off, FACS after a total of 24 hours, 250 nM VX-680 / 1000 nM Compound X / 25 nM Compound Z
smiles,measurement,setting,value
"CCN(CCCOc1ccc2c(Nc3cc(CC(=O)Nc4cccc(F)c4)n[nH]3)ncnc2c1)CCOP(=O)(O)O [AZD1152, reference compound]","exit from mitosis, as measured by phos-MPM2 marker",phos-MPM2 marker,accelerated the exit from mitosis
same,cell growth inhibition in combination with a taxane,cancer cell lines,showed enhanced cell growth inhibition
CSc1cn2c(-c3cn[nH]c3)cnc2c(Nc2cc(C)ns2)n1 [Compound X],endoreduplication,[1]; [5],induced endoreduplication
same,endoreduplication,[1]; [6],induced endoreduplication
same,endoreduplication,[1]; [7],"induced endoreduplication, but only when COMPOUND X or COMPOUND Z exposure was 24 hours"
same,endoreduplication,[1]; [8],insufficient to induce endoreduplication
same,endoreduplication,[1]; [9],induced endoreduplication
same,endoreduplication,[1]; [10],not sufficient to induce endoreduplication
same,exposure needed to induce endoreduplication,[1]; [11],24 h
same,Aurora kinase inhibitor exposure at which endoreduplication was still observed (as little as),[1]; [12],≤ 4 h
same,exposure to Aurora kinase inhibitor required to induce endoreduplication (>4N DNA content) or cell death,[1],24 h
same,"time required for Aurora inhibitor to induce endoreduplication, change after pre-treatment",[1],not reduced
same,endoreduplication (>4N DNA content),[1]; [13],sufficient to induce endoreduplication
same,endoreduplication (>4N DNA content),[1]; [14],resulted in the accumulation of cells that underwent endoreduplication
same,endoreduplication (>4N DNA content),[1]; [15],insufficient to induce endoreduplication
same,endoreduplication (>4N DNA content),[1]; [16],insufficient to induce endoreduplication
same,inhibition of phosphorylation of Histone H3 (at serine-10),[2],capable of inhibiting phosphorylation of Histone H3
same,"exit from mitosis, as measured by phos-MPM2 marker",phos-MPM2 marker,accelerated the exit from mitosis
same,Aurora kinase inhibitor exposure at which endoreduplication was still observed (as little as),[3],≤ 4 h
CCN(Cc1cc(Nc2nc(C)cn3c(-c4cn[nH]c4)cnc23)sn1)C(C)(C)CO [Compound Z],endoreduplication,[1]; [5],induced endoreduplication
same,endoreduplication,[1]; [6],induced endoreduplication
same,endoreduplication,[1]; [7],"induced endoreduplication, but only when COMPOUND X or COMPOUND Z exposure was 24 hours"
same,endoreduplication,[1]; [8],insufficient to induce endoreduplication
same,endoreduplication,[1]; [9],induced endoreduplication
same,endoreduplication,[1]; [10],not sufficient to induce endoreduplication
same,endoreduplication,"[1]; Aurora kinase inhibitor given at the same time as 5 nM taxotere, 4 hour exposure, FACS at 24 hours, listed as COMPOUND Z",not sufficient
same,exposure needed to induce endoreduplication,[1]; [11],24 h
same,exposure needed to induce endoreduplication,[1]; Aurora kinase inhibitor given at the same time as Ispinesib (KSP inhibitor),24 h
same,endoreduplication,"[1]; Aurora kinase inhibitor given at the same time as Ispinesib (KSP inhibitor), 4 hour exposure",not sufficient to induce endoreduplication
same,Aurora kinase inhibitor exposure at which endoreduplication was still observed (as little as),[1]; [12],≤ 4 h
same,exposure to Aurora kinase inhibitor required to induce endoreduplication (>4N DNA content) or cell death,[1],24 h
same,"time required for Aurora inhibitor to induce endoreduplication, change after pre-treatment",[1],not reduced
same,endoreduplication (>4N DNA content),[1]; [13],sufficient to induce endoreduplication
same,endoreduplication (>4N DNA content),"[1]; 24 hour exposure, FACS after a total of 24 hours, 250 nM VX-680 / 1000 nM Compound X / 25 nM Compound Z, listed as COMPOUND Z",resulted in the accumulation of cells that underwent endoreduplication
same,endoreduplication (>4N DNA content),[1]; [14],resulted in the accumulation of cells that underwent endoreduplication
same,endoreduplication (>4N DNA content),[1]; [15],insufficient to induce endoreduplication
same,endoreduplication (>4N DNA content),[1]; [16],insufficient to induce endoreduplication
same,inhibition of phosphorylation of Histone H3 (at serine-10),[2],capable of inhibiting phosphorylation of Histone H3
same,"exit from mitosis, as measured by phos-MPM2 marker",phos-MPM2 marker,accelerated the exit from mitosis
same,Aurora kinase inhibitor exposure at which endoreduplication was still observed (as little as),[3],≤ 4 h
Cc1cc(Nc2cc(N3CCN(C)CC3)nc(Sc3ccc(NC(=O)C4CC4)cc3)n2)n[nH]1 [MK-0457],synergy with Taxotere,cancer cell lines; long-term survival assays,synergy occurred with simultaneous exposure
same,synergy with Taxotere,cancer cell lines; short-term viability assays,synergy occurs with sequential and not simultaneous exposure
"CC(=O)O[C@@]12CO[C@@H]1C[C@H](O)[C@@]1(C)C(=O)[C@H](O)C3=C(C)[C@@H](OC(=O)[C@H](O)[C@@H](NC(=O)OC(C)(C)C)c4ccccc4)C[C@@](O)([C@@H](OC(=O)c4ccccc4)[C@H]21)C3(C)C [Taxotere, docetaxel, reference compound]",cell cycle distribution after release from anti-mitotic pretreatment,[1],exited mitosis
same,cell cycle distribution after anti-mitotic pretreatment (labeled 0 hours),[1],accumulated in mitosis (4N DNA)
"Cc1cc(Nc2cc(N3CCN(C)CC3)nc(Sc3ccc(NC(=O)C4CC4)cc3)n2)n[nH]1 [VX-680, reference compound]",exposure to Aurora kinase inhibitor required to induce endoreduplication (>4N DNA content) or cell death,[1],24 h
same,"time required for Aurora inhibitor to induce endoreduplication, change after pre-treatment",[1],not reduced
same,endoreduplication (>4N DNA content),[1]; [13],sufficient to induce endoreduplication
same,endoreduplication (>4N DNA content),[1]; [16],insufficient to induce endoreduplication
same,inhibition of phosphorylation of Histone H3 (at serine-10),[2],capable of inhibiting phosphorylation of Histone H3
same,"exit from mitosis, as measured by phos-MPM2 marker",phos-MPM2 marker,accelerated the exit from mitosis
same,cell growth inhibition in combination with a taxane,cancer cell lines,showed enhanced cell growth inhibition
COc1cc2c(Nc3ccc(NC(=O)c4ccccc4)cc3)ncnc2cc1OCCCN1CCOCC1 [ZM4477439],mitotic arrest,[4]; arrest induced by nocodazole,not by nocodazole
same,mitotic arrest,[4]; arrest induced by taxol,abrogated mitotic arrest induced by taxol
"COC(=O)Nc1nc2ccc(C(=O)c3cccs3)cc2[nH]1 [nocodazole, reference compound]",effect of anti-mitotic pre-treatment on the exposure time required for an Aurora kinase inhibitor to induce endoreduplication,[1],did not result in the same reduction in required exposure time
same,cell cycle distribution after release from anti-mitotic pretreatment,[1],exited mitosis
same,cell cycle distribution after anti-mitotic pretreatment (labeled 0 hours),[1],accumulated in mitosis (4N DNA)
"CC[C@]1(O)C[C@H]2CN(CCc3c([nH]c4ccccc34)[C@@](C(=O)OC)(c3cc4c(cc3OC)N(C=O)[C@H]3[C@@](O)(C(=O)OC)[C@H](OC(C)=O)[C@]5(CC)C=CCN6CC[C@]43[C@@H]65)C2)C1 [vincristine, reference compound]",effect of anti-mitotic pre-treatment on the exposure time required for an Aurora kinase inhibitor to induce endoreduplication,[1],did not result in the same reduction in required exposure time
